Measured values published in patent publication US4372973A, “16-Amino-postaglandin derivatives, their acid addition salts, and a process for the preparation thereof” (priority 1981, dated 1983).
“Also recorded” adds a separate entry of the source.

Key:
[1] = system: 15-hydroxy-prostaglandin-dehydrogenase; test: 15-Hydroxy-prostaglandin-dehydrogenase substrate test; assay type: in vitro ADME; set-up: key: substrate; O: no substrate of the enzyme; details: In this test the concentration of the compounds 1.10^-4 mole/lit.
Description: Beyond these tests it was determined according to P. Tolnay et al. (Acta Biochim. Biophys. Acad. Sci. Hung. 14, 67 (1979)) whether the compounds of the invention are substrates of the 15-hydroxy-prostaglandin-dehydrogenaseenzyme.

guinea pig trachea = test: Smooth muscle contraction, trachea; assay type: cell-based; set-up: key: +: contraction on trachea; O: inactive on trachea; details: 1 μg/ml
Text: (§1) The compounds prepared according to the process of the invention were submitted to several tests developed for detecting the effects of 9α, 11α, 15(S)-trihydroxy-5-cis, 13-trans-prostadienoic acid (PGF2α). From the organs containing smooth muscle guinea pig trachea, ileum and rat uterine horn were used in the trials. The organs were suspended in isotonic salt medium and the potency was registered on the basis of isotonic contractions (Pharmacological Experiments on Isolated Preparations, Ed. W. L. M. Perry and E. S. Livingstone, Edinburgh and London (1970)). The effect exerted on the aggregation of human blood platelets, induced by 5.10^-5 mole/lit. of adenosine-5'-phosphate, was measured in a CHRONO LOG Aggregometer according to A. V. R. Born (J. Physiol. 162, 67 (1962)).

guinea pig ileum = test: Smooth muscle contraction, ileum; assay type: cell-based; details: PGF2α = 1.00
Text: as §1

rat uterine horn = test: Smooth muscle contraction, uterus; assay type: cell-based; details: PGF2α = 1.00
Text: as §1

human blood platelets = test: Inhibition of blood platelet aggregation; assay type: cell-based; details: 100 μg/ml, induced by 5.10^-5 mole/lit. of adenosine-5'-phosphate
Text: as §1

[2] = system: white mice on the 17th or 18th day of pregnancy; test: Abortive effect in pregnant mice; assay type: in vivo; details: s.c.; for ED50: Mus musculus, sc, 48 h, body weight, white mice, 17th or 18th day of pregnancy, 5 animals per group
Description: (§2) The favorable biological properties of the new compounds of the invention are clearly manifested in their abortive effect. The test materials were administered subcutaneously to white mice on the 17th or 18th day of pregnancy, then the deliveries were followed up in the subsequent 48 hours, and the overall status of the excised uterus (scars, embrional residual debris) was evaluated (M. J. R. Harper et al.: Advances in Biosciences 9, 789 (1973)). In groups containing 5 animals the dose effect relationships of PGF2α, its methyl ester, as well as of the new 16-amino-prostaglandin derivatives were determined.

[3] = Laxative effect (diarrhea) at abortive doses; assay type: in vivo, white mice
Description: as §2

15-Hydroxy-prostaglandin-dehydrogenase (substrate or no substrate) [1] | diarrhea ([3]; even at the tenfold of the abortive dose) | laxative effect ([3]; at abortive doses) | laxative effect ([3]; mouse, in vivo) | SMILES | Smooth muscle contraction Trachea (guinea pig trachea) | Smooth muscle contraction relative efficiency Ileum (guinea pig ileum) | Smooth muscle contraction relative efficiency Uterus (rat uterine horn) | inhibition at 100 µg/mL (human blood platelets) [%] | ED50 [2] [mg/kg] | abortive potency (in words) ([2]; mice, compared to PGF2α, listed as 9 α, 11 α, 15(ksi)-trihydroxy-16(S)-amino-5-cis, 13-trans-prostadienoic acid met)
O | – | – | – | CCCC[C@@H](N)C(O)/C=C/[C@@H]1[C@@H](C/C=C\CCCC(=O)O)[C@@H](O)C[C@H]1O (single isomer, unassigned) | O | 0.02 | 0.13 | – | – | –
O | – | – | – | CCCC[C@@H](N)C(O)/C=C/[C@@H]1[C@@H](C/C=C\CCCC(=O)OC)[C@@H](O)C[C@H]1O (single isomer, unassigned) | O | 0.02 | 0.05 | – | – | –
O | – | – | – | CCCC[C@H](N)C(O)/C=C/[C@@H]1[C@@H](C/C=C\CCCC(=O)O)[C@@H](O)C[C@H]1O (single isomer, unassigned) | – | 0.11 | 0.83 | 75 | – | –
O | no diarrhea is observed | – | – | CCCC[C@H](N)C(O)/C=C/[C@@H]1[C@@H](C/C=C\CCCC(=O)OC)[C@@H](O)C[C@H]1O (single isomer, unassigned) | O | 0.17 | 0.99 | 52 | 0.1 | exceedingly high abortive effect; also recorded: the most active agent
s | – | exhibit also a laxative effect | – | CCCCC[C@H](O)/C=C/[C@@H]1[C@@H](C/C=C\CCCC(=O)OC)[C@@H](O)C[C@H]1O [PGF2α methyl ester, reference compound] | + | 0.78 | 1.25 | 56 | 6 | –
s | – | – | exhibit also a laxative effect | CCCCC[C@H](O)/C=C/[C@@H]1[C@@H](C/C=C\CCCC(=O)O)[C@@H](O)C[C@H]1O [PGF2α, 9α, 11α, 15(S)-trihydroxy-5-cis, 13-trans-prostadienoic acid, reference compound] | + | 1.00 | 1.00 | 82 | 20 | –
